Results from patent US20220041616A1, “SPIRO COMPOUND AND MEDICAL USES THEREOF” (The National Institutes of Pharmaceutical R&D Co., Ltd., priority 2018, published 2022).

What was measured:
ACC1 = target: T1, ACC1 (Homo sapiens, UniProt Q13085); experiment: In vitro inhibition of ACC1 activity, ADP-Glo Kinase Analysis; assay type: biochemical; settings: 1 nM ACC1, 10 μM acetyl-CoA, 20 μM ATP
T1 construct: purchased BPS bioscience
From the text: ADP-Glo™ Kinase Analysis Kit (Promega) is used for the in vitro analysis of the inhibitory effect of the present compound on ACC1 or ACC2. ADP-Glo™ Kinase Analysis is a kinase detection analysis of luminescence method. ADP is produced in the process of catalyzing the substrate by ACC. ADP is converted into ATP which is then converted into light by Ultra-Glo™ luciferase. ADP is quantified by detecting the light signal, thus the enzyme activity can be measured by quantification of the ADP amount produced during the enzyme reaction. The analysis is carried out in two steps: in the first step, after the kinase reaction, a portion of ADP-Glo™ reagent equal in volume to the kinase reaction system is added to terminate the reaction and consume the remaining ATP; in the second step, a kinase detection reagent is added, which not only converts ADP into ATP, but also uses a coupled luciferase/luciferin reaction to detect newly synthesized ATP.
a. 10 mM compound stock solution (the present compound was dissolved in 100% DMSO to prepare the 10 mM stock solution) was diluted 50-fold to 200 μM with 100% DMSO, and then diluted in equal proportions (1:3) in a 96-well dilution plate (249944, Nunc). The gradient concentrations of the compound were 200 μM, 66.67 μM, 22.22 μM, 7.41 μM, 2.47 μM, 0.823 μM, 0.274 μM, 0.0914 μM, 0.0305 μM, 0.0102 μM, 0.00339 μM and 0.00113 μM.
b. 4.5 μL ACC1 working solution (BPS bioscience) (2.22 nM) was added to each well of a 384-well test plate (6007290, Perkin Elmer).
c. 0.5 μL of the serially diluted compound (prepared in step a) was added to each well of the 384-well test plate, which was centrifuged at 1000 rpm for 1 min and then incubated at room temperature for 15 min. The reaction system with compound GS-0976 at a final concentration of 0.1 μM was used as positive control; the reaction system with no compound but DMSO at a final concentration of 5% was used as negative control.
d. In the 384-well test plate (prepared in step c), 5 μL of the substrate working solution was added to each well to start the enzymatic reaction. The plate was centrifuged at 1000 rpm for 1 min and then incubated at room temperature for 30 min. The final concentration of each component in the ACC1 reaction system: 1 nM ACC1, 10 μM acetyl-CoA, 30 mM NaHCO3, and 20 μM ATP. The final concentration of each component in the ACC2 reaction system: 1.1 nM ACC2, 20 μM acetyl-CoA, 20 mM NaHCO3, and 15 μM ATP. Final concentrations of test compounds: 10 μM, 3.33 μM, 1.11 μM, 0.37 μM, 0.123 μM, 0.0411 μM, 0.0137 μM, 0.00457 μM, 0.00152 μM, 0.00051 μM, 0.00017 μM and 0.000056 μM. The final concentration of DMSO was 5% (v/v).
e. 10 μL of ADP-Glo reagent was added to each well of the 384-well test plate (prepared in step d), which was centrifuged at 1000 rpm for 1 min and then incubated at room temperature for 40 min.
f. 20 μL of kinase detection reagent was added to each well of the 384-well test plate (prepared in step e), which was centrifuged at 1000 rpm for 1 min and then incubated at room temperature for 40 min.
g. The chemiluminescence signal was detected with Perkin Elmer EnVision 2104.
ACC1 working solution and substrate working solution were both prepared with 1× kinase reaction buffer. The buffer was consisting of 50 mM HEPES buffer, 2 mM magnesium chloride, 0.01% BRIJ-35, 2 mM potassium citrate, 50 μg/mL BSA and 2 mM DTT.
The average value of the positive and negative control well and the standard deviation were calculated. The inhibition percentage was calculated according to the following formula: 100×[1−(compound−average value of positive control)/(average value of negative control-average value of positive control)].
IC50 of the compound was obtained using GraphPad Prism 6 software according to the following nonlinear fitting formula:
Y=Bottom+(Top−Bottom)/(1+10^((Log IC50−X)×Hillslope)), […]

[1] = tested on: patients with non-alcoholic steatohepatitis (NASH); settings: cited from earlier work
patients = settings: 10 patients, 20 mg orally once a day for 12 weeks; cited from earlier work

Row | Structure (SMILES) | IC50 (ACC1) | also measured
1 | COC(=O)N1CCC2(CC1)C(=O)c1c(sc(-c3ncco3)c1C)N(C[C@H](OC1CCOCC1)c1ccccc1OC)C2=O [Compound 28, methyl (R)-7′-(2-(2-methoxyphenyl)-2-((tetrahydro-2H-pyran-4-yl)oxy)ethyl)-3′-methyl-2′-(oxazol-2-yl)-4′,6′-dioxo-6′,7′-dihydro-4′H-spiro[piperidine-4,5′-thieno[2,3-d]pyridine]-1-carboxylate] | < 10 nM | 
2 | COc1ccccc1[C@H](CN1C(=O)C2(CCN(S(=O)(=O)O)CC2)C(=O)c2c1sc(-c1ncco1)c2C)OC1CCOCC1 [Compound 30] | < 10 nM | 
3 | COc1ccccc1[C@H](CN1C(=O)C2(CCN(C(=O)NCCO)CC2)C(=O)c2c1sc(-c1ncco1)c2C)OC1CCOCC1 [Compound 33] | < 10 nM | 
4 | COc1ccccc1[C@H](Cn1c(=O)n(C(C)(C)C(=O)O)c(=O)c2c(C)c(-c3ncco3)sc21)OC1CCOCC1 [GS-0976] |  | relative decrease of liver fat content ([1]; 12th week, MRI-PDFF): 43%; median cirrhosis, non-invasive marker of fibrosis, by magnetic resonance elastography (MRE) ([1]; 12th week, baseline 3.4 kPa, p=0.049): 3.1 kPa; liver fat content measured by MRI-PDFF ([1]; 12th week, baseline 15.7%, p=0.006): 9.0%; decrease of the amount of denovo fat synthesis from the baseline level, median ([1]; after 12 weeks): 29%; tolerability ([1]; most common adverse events nausea, abdominal pain and diarrhea): well tolerated; liver fat content and non-invasive fibrosis markers (patients): statistically significant improvements

Now from value to molecule, other results behind:

Row | IC50 (ACC1) | Structure (SMILES) | also measured
5 | < 10 nM | COc1ccccc1[C@H](CN1C(=O)C2(CCN(C(=O)C(=O)O)CC2)C(=O)c2c1sc(-c1ncco1)c2C)OC1CCOCC1 [Compound 27, (R)-2-(7′-(2-(2-methoxyphenyl)-2-((tetrahydro-2H-pyran-4-yl)oxy)ethyl)-3′-methyl-2′-(oxazol-2-yl)-4′,6′-dioxo-6′,7′-dihydro-4′H-spiro[piperidine-4,5′-thieno[2,3-d]pyridin]-1-yl)-2-oxoacetic Acid] | 
6 | < 10 nM | COc1ccccc1[C@H](CN1C(=O)C2(CCN(C(=O)NCC(=O)O)CC2)C(=O)c2c1sc(-c1ncco1)c2C)OC1CCOCC1 [Compound 29, (R)-(7′-(2-(2-methoxyphenyl)-2-((tetrahydro-2H-pyran-4-yl)oxy)ethyl)-3′-methyl-2′-(oxazol-2-yl)-4′,6′-dioxo-6′,7′-dihydro-4′H-spiro[piperidine-4,5′-thieno[2,3-d]pyridine]-1-carbonyl)glycine] | 
7 | < 10 nM | COc1ccccc1[C@H](CN1C(=O)C2(CCN(C(N)=O)CC2)C(=O)c2c1sc(-c1ncco1)c2C)OC1CCOCC1 [Compound 31] | 
8 | < 10 nM | CNC(=O)N1CCC2(CC1)C(=O)c1c(sc(-c3ncco3)c1C)N(C[C@H](OC1CCOCC1)c1ccccc1OC)C2=O [Compound 32] | 
